According to publication PMC13252604, “First Generation Proteolysis Targeting Chimeras (PROTACs) for the Treatment of Progeria” (Advanced Science, 2026):

Columns and labels:
[1] = test system: Lmna^G609G/G609G fibroblasts; assay: Cell viability assay (MTT); type: cell-based, mouse; conditions: up to 50 µM, 24 h
Procedure: (§1) Cpd!" 2 Cpd#$ 9 Cpd!" 2 Cpd#$ 9
(§2) Supporting Figure S3. Cellular cytotoxicity of compounds 2 and 9. Viability of progeroid […]/G609G and wild type Lmna+/+ fibroblasts treated with compounds at 5-50 µM for 24 h. Viability is expressed as the percentage relative to cells treated with vehicle (0.1% DMSO) which are considered 100% viable. Error bars represent the average±SD from three independent experiments carried out in duplicate.
(§3) (also on this page, place not known: !" #$**+,-./-*-01+234 !" #$**+,-./-*-01+234 Cpd2 Cpd2Cpd9 Cpd9) […]
(§4) was saturated at 100 ppm. Relative STD effects were calculated by comparing the intensity of the signals in the STD-NMR spectrum with signal intensities of the reference spectrum (off-resonance). The STD signal with the highest intensity was set to 100%, a nd other STD signals were calculated accordingly. […]
(§5) Cell viability was assessed as previously described.[64] […] Once supernatants were removed, formazan crystals previously formed by viable cells were dissolved in DMSO (100 μL/ well) and absorbance was measured at 570 nm (OD570-630) using an Asys UVM 340 (Biochrom Ltd., Cambridge, UK) microplate reader. Background absorbance from blank wells containing only media with compound or vehicle were subtracted from each test well. […]

Lmna^+/+ fibroblasts = assay: Cell viability assay (MTT); type: cell-based, mouse; conditions: up to 50 µM, 24 h
Procedure: as §1, §2, §3, §4, §5

Stability in human serum = type: in vitro ADME
Excerpt: TABLE 1 Pharmacokinetic parameters of PROTAC 2. | column: Stability (hours) ^b / h‐serum

CC1(C)Oc2cc3oc(=O)ccc3cc2C[C@@H]1OC(=O)CCCCCNc1cccc2c1C(=O)N(C1CCC(=O)NC1=O)C2=O (stereo partly drawn) [compound 2]
cytotoxicity (cell viability) [1]: did not induce significant cytotoxicity
cytotoxicity (cell viability) (Lmna^+/+ fibroblasts): did not induce significant cytotoxicity
Stability (hours) h‐serum (Stability in human serum): >24 h
